Assay results as given in patent publication US20210145801A1, “THERAPY FOR PROTEIN MISFOLDING DISEASE” (WREN THERAPEUTICS LIMITED, priority 2018, published 2021).
Entries after “also recorded” stand apart in the source; their conditions may differ.

Experiments:
Aβ40 = molecular target: T1, Aβ40 (Homo sapiens, UniProt P05067); assay: Aβ40 aggregation kinetics; type: biochemical; details: 10 μM Aβ40; 1.25-fold excess
T1 construct: similar kinetics experiments were performed on the 40-residue isoform, Aβ40
Description: For the experiments monitoring Aβ40 aggregation kinetics, the experiments were performed similarly to those described above for Aβ42 at a concentration of 10 μM of Aβ40 in the absence or presence of 1.25-fold excess of Netoglitazone.

[1] = molecular target: T2, Aβ plaques in AD worms (GMC101) (Homo sapiens, UniProt P05067); assay: NIAD-4 staining of plaques load in living AD worms; type: in vivo, C. elegans
T2 construct: unc-54p::A-beta-1-42 expresses full-length human Aβ42 peptide in body wall muscle cells; expressed in transfected cells; host or cells: C. elegans strain GMC101 (dvIs100), body wall muscle cells
Description: GMC101 dvIs100 [unc-54p::A-beta-1-42::unc-54 3′UTR+mtl-2p::GFP]. mtl-2p::GFP produces constitutive expression of GFP in intestinal cells. unc-54p::A-beta-1-42 expresses full-length human Aβ42 peptide in body wall muscle cells that aggregates in vivo. Shifting L4 or young adult animals from 20° to 24° C. causes paralysis (G. McColl et al., Utility of an improved model of amyloid-beta (Aβ1-42) toxicity in Caenorhabditis elegans for drug screening for Alzheimer's disease. Mol Neurodegener. 7, 57 (2012));
Briefly, Netoglitazone stocks (5 mM in 100% DMSO) were used at an appropriate concentration to seed 9-cm NGM plates. Plates were then placed in a laminar flow hood at room temperature (22° C.) for up to 4 hours to dry. […]
Plaques staining was carried out as previously described (J. Habchi et al. (2016); M. Perni et al., A natural product inhibits the initiation of α-synuclein aggregation & suppresses its toxicity. Proc. Natl. Acad. Sci. U.S.A. 114, E1009-E1017 (2017)). […] Images were captured with a Zeiss Axio Observer D1 fluorescence microscope (Carl Zeiss Microscopy GmbH) with a 20× objective and a 49004 ET-CY3/TRITC filter (Chroma Technology Corp). Fluorescence intensity was calculated using ImageJ software (National Institutes of Health) and then normalized as the corrected total cell fluorescence. […] Statistical significance was determined using t tests.

AD worms (GMC101) = details: GMC101, C. elegans, in vivo
Description: Briefly, Netoglitazone stocks (5 mM in 100% DMSO) were used at an appropriate concentration to seed 9-cm NGM plates. Plates were then placed in a laminar flow hood at room temperature (22° C.) for up to 4 hours to dry. C. elegans cultures were then transferred onto media seeded with compound as L4 stage or Day 3 for late treatments and incubated at 24° for the whole experiment. Experiments were carried out at different Netoglitazone concentrations ranging from 0.05 to 500 μM in 1% DMSO. As controls, plates seeded only with 1% DMSO were used.

Aβ plaques = assay: Aβ plaque quantification in APPPS1 transgenic mice; type: in vivo; details: 75 mg/kg/day once daily for 90 days from 60 days of age
Description: APPPS1 transgenic mice were used in the study, which co-express the Swedish mutation […] and PS1 mutation L166P under the control of the neuron-specific Thy-1 promoter on a C57BL/6 genetic background. APPPS1 mice were habituated ahead of the study to voluntarily drink a condensed milk formulation from a pipette. The condensed milk used in the study is commercially available (Migros) and contains milk, sugar, stabilizer E339. Body weight was measured ahead of commencing the study to calculate the dose of Netoglitazone for each mouse and to calculate the total blood volume. Mice aged 60 days old were then dosed once daily with a pipette for 90 days. The pipette contained 40-80 μL consisting of either condensed milk (2 ml/kg/day) only (placebo cohort) or condensed milk (2 ml/kg/day) and Netoglitazone (75 mg/kg/day). Blood was collected via retro-orbital sampling to monitor the concentration of Netoglitazone after 7 days and 28 days. Visual monitoring of the mice and measurement of body weight were conducted daily and every other week respectively. At the end of the experiment (i.e. after 90 days of once daily treatment such that mice were 150 days old), mice were euthanized and their brains were analyzed as outlined below. […]
The image files were analysed using custom-coded software. […]

T2 sequence (P05067 672-713 limits assumed): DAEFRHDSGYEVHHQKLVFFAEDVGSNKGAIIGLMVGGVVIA
T1 sequence (P05067 672-711 limits assumed): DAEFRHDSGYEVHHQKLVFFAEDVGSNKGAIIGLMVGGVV

For `O=C1NC(=O)C(Cc2ccc3cc(OCc4ccccc4F)ccc3c2)S1` (centres unmarked) [Netoglitazone], the “Inhibition of Aβ40 aggregation” value (Aβ40) was “able to inhibit Aβ40 aggregation similarly to the 42-residue isoform”, the “Plaques load in AD worms (NIAD-4 fluorescence)” value ([1]; 0.5 μM administered at L4, day 6 of adulthood) was “significantly decrease the plaques load; also recorded: Decrease in the plaques load in AD worms” and the “Plaques load in AD worms after late administration” value ([1]; administered at D3 of adulthood, read at D6) was “significant decrease of the plaques load at D6; also recorded: decreases the plaques load at D6 of adulthood”. The “Maximum tolerable dose in AD worms” value (AD worms (GMC101)) was “less than 50 μM” and the “Relative number of Aβ plaques in brain vs placebo” value (Aβ plaques) was “decrease in the relative number of Aβ plaques”.
